We go through 29 molecules from patent US11247987B2, “Inhibiting ubiquitin specific peptidase 30” (FORMA Therapeutics, Inc., priority 2017, dated 2022).

Structures are written as SMILES. Some results are limits rather than exact numbers.

The target in this assay is T1, human recombinant USP30 (Homo sapiens, UniProt Q70CQ3).
T1 construct: purchased Boston Biochem E-582
T1 sequence (Q70CQ3 1-517): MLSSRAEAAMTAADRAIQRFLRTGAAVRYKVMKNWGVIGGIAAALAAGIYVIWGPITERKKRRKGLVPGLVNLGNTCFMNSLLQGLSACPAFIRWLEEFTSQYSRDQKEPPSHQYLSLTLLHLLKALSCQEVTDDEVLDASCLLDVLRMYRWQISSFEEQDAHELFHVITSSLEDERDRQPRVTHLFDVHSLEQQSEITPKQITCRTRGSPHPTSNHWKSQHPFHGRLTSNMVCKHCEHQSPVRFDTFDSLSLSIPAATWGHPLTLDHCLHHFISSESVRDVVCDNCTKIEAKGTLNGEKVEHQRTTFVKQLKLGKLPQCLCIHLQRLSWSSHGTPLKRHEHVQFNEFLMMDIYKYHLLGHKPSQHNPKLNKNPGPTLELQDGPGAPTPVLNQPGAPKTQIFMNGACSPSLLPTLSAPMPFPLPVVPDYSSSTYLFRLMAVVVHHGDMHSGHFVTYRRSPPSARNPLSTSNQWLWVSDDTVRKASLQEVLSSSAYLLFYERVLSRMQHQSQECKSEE
In words: Ubiquitin-Rhodamine 110 Assay for USP30 Activity (USP30 Inhibitor Biochemical Assay). The following applies: 0.2 nM USP30, 25 nM Ub-Rh110, 30 min preincubation, 30 min at room temperature; read-out: USP30 potency range (USP30 biochemical IC50 assay, IC50 ranges). As to the method:
Example A: Biochemical Assay: Ubiquitin-Rhodamine 110 Assay for USP30 Activity (USP30 Inhibitor Biochemical Assay)
The assay was performed in a final volume of 9 μL in assay buffer containing 20 mM Tris-HCl (pH 8.0, (1M Tris-HCl, pH 8.0 solution; Corning 46-031-CM)), 1 mM GSH (L-glutathione reduced, Sigma-Aldrich, G4251-100G), 0.03% BGG (0.22 μM filtered, Sigma, G7516-25G), and 0.01% Triton X-100 (Sigma, T9284-10L). Nanoliter quantities of 10-point, 3-fold serial dilution in DMSO were pre-dispensed into 1536 assay plates (Corning, #3724BC) for a final test concentration of 25 μM to 1.3 nM, top to lowest dose, respectively. Concentration and incubation times were optimized for the maximal signal-to-background while maintaining initial velocity conditions at a fixed substrate concentration. The final concentration of USP30 (human recombinant USP30, Boston Biochem, cat. # E-582) in the assay was 0.2 nM. […] 3 μL of 2×USP30 was added to assay plates (pre-stamped with compound), preincubated for 30 minutes and then treated with 3 μL of 2×Ub-Rh110. Plates were incubated for 30 minutes at room temperature before addition of 3 μL of stop solution (final concentration of 10 mM citric acid (Sigma, 251275-500G)). Fluorescence was read on the Envision (excitation at 485 nm and emission at 535 nm; Perkin Elmer) or on the PheraSTAR (excitation at 485 nm and emission at 535 nm; BMG Labtech).
For all assay formats data were reported as percent inhibition compared with control wells based on the following equation: % inh=1−((FLU−AveLow)/(AveHigh−AveLow)) where FLU=measured Fluorescence, AveLow=average Fluorescence of no enzyme control (n=16), and AveHigh=average Fluorescence of DMSO control (n=16). IC50 values were determined by curve fitting of the standard 4 parameter logistic fitting algorithm included in the Activity Base software package: IDBS XE Designer Model205. Data is fitted using the Levenburg Marquardt algorithm.
For the molecule `N#CN[C@H]1C[C@@](F)(C(=O)Nc2cc(-c3ccc(C(F)(F)F)cc3)n[nH]2)C1` [Compound 1-57, (1r,3r)-3-(cyanoamino)-1-fluoro-N-{3-[4-(trifluoro-methyl)phenyl]-1H-pyrazol-5-yl}cyclobutane-1-carboxamide], the IC50 (in general, the point on the concentration scale where inhibition reaches its midpoint) was in the range of 100 to 1000 nM.

`N#CN[C@H]1C[C@H](C(=O)Nc2ncc([C@@H]3CCCCO3)s2)C1` [Compound 1-28, (1r,3r)-3-(cyanoamino)-N-{5-[(2S)-oxan-2-yl]-1,3-thiazol-2-yl}cyclobutane-1-carboxamide]: the IC50 lay within 1000 to 10000 nM.

`N#CN[C@@H]1C[C@H]1C(=O)Nc1ncc(C2CCCCC2)s1` (relative stereo) [Compound 11-1, trans-2-(cyanoamino)-N-(5-cyclohexyl-1,3-thiazol-2-yl)cyclopropane-1-carboxamide]: the IC50 was 1000 to 10000 nM.

As to `CC(C)(C)c1cnc(NC(=O)[C@H]2C[C@H](NC#N)C2)s1` [Compound 5-13, trans-N-(5-tert-butyl-1,3-thiazol-2-yl)-3-(cyanoamino)cyclobutane-1-carboxamide], the IC50 was in the range of 100 to 1000 nM.

Turning to `N#CN[C@H]1C[C@@H](C(=O)Nc2ccn(-c3ccccc3)n2)C1` [Compound 5-2, cis-3-(cyanoamino)-N-(1-phenyl-1H-pyrazol-3-yl)cyclobutane-1-carboxamide], the IC50 fell in the range of 10000 to 25000 nM.

As to `N#CN[C@H]1C[C@H](C(=O)Nc2ncc(-c3ccccc3)s2)C1` [Compound 5-8, trans-3-(cyanoamino)-N-(5-phenyl-1,3-thiazol-2-yl)cyclobutane-1-carboxamide], the 50% inhibitory concentration (IC50) fell in the range of 1000 to 10000 nM.

Regarding `N#CN[C@H]1C[C@H](C(=O)Nc2ccc(N3CCOCC3)cc2)C1` [Compound 5-14, trans-3-(cyanoamino)-N-[4-(morpholin-4-yl)phenyl]cylobutane-1-carboxamide], the IC50 was 10000 to 25000 nM.

For the molecule `N#CN[C@H]1C[C@H](C(=O)Nc2cnn(-c3ccccc3)c2)C1` [Compound 5-5, trans-3-(cyanoamino)-N-(1-phenyl-1H-pyrazol-4-yl)cyclobutane-1-carboxamide], the IC50 lay within 1000 to 10000 nM.

On to `N#CN[C@H]1C[C@H](C(=O)Nc2cc(-c3cccc(Cl)c3)on2)C1` [Compound 1-43, (1r,3r)-N-[5-(3-chlorophenyl)-1,2-oxazol-3-yl]-3-(cyanoamino)cyclo-butane-1-carboxamide], for which the 50% inhibitory concentration (IC50) was 100 to 1000 nM.

On to `N#CN[C@H]1C[C@H](C(=O)Nc2cnc(C3CC(F)(F)C3)s2)C1` [Compound 1-9, (1r,3r)-3-(cyanoamino)-N-[2-(3,3-difluoro-cyclobutyl)-1,3-thiazol-5-yl]cyclobutane-1-carboxamide], for which the IC50 lay within 100 to 1000 nM.

On to `N#CNC1CCN(C(=O)c2csc(-c3ccc(Cl)cc3Cl)n2)CC1` [Compound 12-9, ({1-[2-(2,4-dichlorophenyl)-1,3-thiazole-4-carbonyl]piperidin-4-yl}amino)carbonitrile], for which the IC50 was 1000 to 10000 nM.

Turning to `CC(C)(C)c1sc(NC(=O)[C@]2(Cl)C[C@@H](NC#N)C2)nc1Cl` (single isomer, unassigned) [Compound 9-1, (1s,3s)-N-(5-tert-butyl-4-chloro-1,3-thiazol-2-yl)-1-chloro-3-(cyanoamino)cyclobutane-1-carboxamide], the IC50 was below 100 nM.

Take `N#CN[C@H]1CCC[C@H](C(=O)Nc2ncc(C3CCCCC3)s2)C1` [Compound 10-5, (1S,3S)-3-(cyanoamino)-N-(5-cyclohexyl-1,3-thiazol-2-yl)cyclohexane-1-carboxamide]: the IC50 was above 25000 nM.

Take `N#CN[C@H]1C[C@H](C(=O)Nc2nc(Cl)c(C3CCCCC3)s2)C1` [Compound 1-10, (1r,3r)-N-(4-chloro-5-cyclohexyl-1,3-thiazol-2-yl)-3-(cyanoamino)cyclo-butane-1-carboxamide]: the IC50 is below 100 nM.

As to `N#CN[C@H]1C[C@H](C(=O)Nc2ncc(C3CCCCC3)o2)C1` [Compound 1-53, (1r,3r)-3-(cyanoamino)-N-(5-cyclohexyl-1,3-oxazol-2-yl)cyclobutane-1-carboxamide], the 50% inhibitory concentration (IC50) lay in the range of 100 to 1000 nM.

In the case of `N#CN[C@H]1C[C@H](C(=O)Nc2cc(-c3cccc(C#N)c3)no2)C1` [Compound 1-51, (1r,3r)-3-(cyanoamino)-N-[3-(3-cyanophenyl)-1,2-oxazol-5-yl]cyclobutane-1-carboxamide], the IC50 is 100 to 1000 nM.

Regarding `CC(C)(C)c1sc(N2CC[C@]3(C[C@H](NC#N)C3)C2=O)nc1Cl` (single isomer, unassigned) [Compound 7-1, ([(2r,4s)-6-(5-tert-butyl-4-chloro-1,3-thiazol-2-yl)-5-oxo-6-azaspiro[3.4]octan-2-yl]amino)carbonitrile], the IC50 is below 100 nM.

For the molecule `CN(c1nc(Cl)c(C(C)(C)C)s1)C(=O)[C@H]1C[C@H](NC#N)C1` [Compound 1-50, (1r,3r)-N-(5-tert-butyl-4-chloro-1,3-thiazol-2-yl)-3-(cyanoamino)-N-methylcyclobutane-1-carboxamide], the IC50 was below 100 nM.

For the molecule `N#CN[C@H]1C[C@@H](C(=O)N2CCN(c3ccccc3)CC2)C1` [Compound 5-11, {[cis-3-(4-phenylpiperazine-1-carbonyl)cyclobutyl]amino} carbonitrile], the IC50 lay within 10000 to 25000 nM.

As to `CC(C)(C)c1sc(NC(=O)[C@]2(F)C[C@H](NC#N)C2)nc1Cl` [Compound 1-60, (1r,3r)-N-(5-tert-butyl-4-chloro-1,3-thiazol-2-yl)-3-(cyanoamino)-1-fluorocyclobutane-1-carboxamide], the IC50 was below 100 nM.

Consider `CC(C)(C)c1sc(NC(=O)[C@H]2C[C@H](NC#N)C2)nc1Cl` [Compound 1-19, (1r,3r)-N-(5-tert-butyl-4-chloro-1,3-thiazol-2-yl)-3-(cyanoamino)cyclo-butane-1-carboxamide], for which the IC50 is below 100 nM.

With `N#CN[C@H]1C[C@H](C(=O)Nc2ncc([C@H]3CC4CCC3CC4)s2)C1` [Compound 1-38, (1r,3r)-N-{5-[(2S)-bicyclo[2.2.2]octan-2-yl]-1,3-thiazol-2-yl}-3-(cyanoamino)cyclo-butane-1-carboxamide], the IC50 is 100 to 1000 nM.

Regarding `N#CN[C@H]1CC[C@H](C(=O)Nc2ccn(-c3ccccc3)n2)C1` [Compound 12-2, (1S,3S)-3-(cyanoamino)-N-(1-phenyl-1H-pyrazol-3-yl)cyclopentane-1-carboxamide], the IC50 lay in the range of 10000 to 25000 nM.

Consider `N#CN[C@H]1C[C@H](C(=O)Nc2nc(C3CC3)c(C3CCCCC3)s2)C1` [Compound 1-25, (1r,3r)-3-(cyanoamino)-N-(5-cyclohexyl-4-cyclopropyl-1,3-thiazol-2-yl)cyclobutane-1-carboxamide], for which the concentration for half-maximal inhibition (IC50) is below 100 nM.

Turning to `CO[C@]1(C(=O)Nc2nc(Cl)c(C(C)(C)C)s2)C[C@@H](NC#N)C1` [Compound 8-1, N-(5-tert-butyl-4-chloro-1,3-thiazol-2-yl)-3-(cyanoamino)-1-methoxycyclobutane-1-carboxamide], the IC50 is below 100 nM.

Consider `CN(c1cnc(C2CCCCC2)s1)C(=O)[C@H]1C[C@H](NC#N)C1` [Compound 1-4, (1r,3r)-3-(cyanoamino)-N-(2-cyclohexyl-1,3-thiazol-5-yl)-N-methylcyclobutane-1-carboxamide], for which the IC50 is 100 to 1000 nM.

As for `CN(c1nc(Cl)c(C2CCCCC2)s1)C(=O)[C@H]1C[C@H](NC#N)C1` [Compound 1-49, (1r,3r)-N-(4-chloro-5-cyclohexyl-1,3-thiazol-2-yl)-3-(cyanoamino)-N-methylclycobutane-1-carboxamide], the IC50 is below 100 nM.

`N#CN[C@H]1CC[C@H](C(=O)Nc2ncc(C3CCCCC3)s2)CC1` [Compound 10-2, trans-4-(cyanoamino)-N-(5-cyclohexyl-1,3-thiazol-2-yl)cyclohexane-1-carboxamide]: the IC50 lay in the range of 1000 to 10000 nM.

With `N#CN[C@H]1C[C@H](C(=O)Nc2sc(C3CCCCC3)nc2Cl)C1` [Compound 1-14, (1r,3r)-N-(4-chloro-2-cyclohexyl-1,3-thiazol-5-yl)-3-(cyanoamino)cyclo-butane-1-carboxamide], the half-maximal inhibitory concentration (IC50) was in the range of 100 to 1000 nM.
